Measurements as given in the NIST ThermoML archive (doi:10.1016/j.tca.2007.09.001).

Test: molar heat capacity at constant pressure
Details: 101.33 kPa, Crystal, Large sample (1 g) DSC

[Co+3].[Nd+3].[O-2].[O-2].[O-2] [cobalt(III) neodymium(III) oxide]
Details	molar heat capacity at constant pressure [J/K/mol]
130 K	57.2
140 K	62.7
150 K	67.7
160 K	72.3
170 K	76.4
180 K	80.2
190 K	83.5
200 K	86.5
210 K	89.2
220 K	91.6
230 K	93.8
240 K	95.8
250 K	97.8
260 K	98.7
270 K	100.5
280 K	102.3
290 K	104.1
298.15 K	105.8
300 K	105.9
325 K	110.3
350 K	116
375 K	120.4
400 K	122.9
425 K	124.8
450 K	127.1
475 K	130.3
500 K	134.5
525 K	139.2
550 K	144.1
575 K	148.3
600 K	151.4
625 K	153.2
650 K	153.3
675 K	152.1
700 K	149.9
725 K	147.1
750 K	144.3
775 K	141.9
800 K	140.3
825 K	139.4
850 K	138.5
